Holding throughout (assay type): cell-based
One test deals with Epidermophyton floccosum. Nature of the test: Minimum Inhibitory Concentration (MIC) Method B, DIN 58940; Synergy Index according to Kull. Particulars: single substance. As to the method: (§1) B) Minimum Inhibitory Concentration (MIC) Method B
(§2) 5 ml of the appropriate dilution of the test product is mixed with 0.1 ml of test suspension and mixed well. After the required action times, the mixture was mixed again. Each 0.1 ml were removed and placed in 5 ml of CSL-bouillon without neutralizing agents.
(§3) In order to calculate the synergy index with MIC values, the Kull equation (I) was used as follows:
(§4) SI=(MICmixture×PA)/MICA+(MICmixture×PB)/MICB (I)
SI is the Synergy Index according to Kull
MICA is the MIC value for Substance A
MICB is the MIC value for Substance B
MICmixture is the MIC value for the mixture of substances A and B
PA is the proportion of the substance A in the mixture
PB is the proportion of the substance B in the mixture

Test [1] concerns Corynebacterium xerosis. Nature of the test: Minimum Inhibitory Concentration (MIC) Method A. As to the method: A) Minimum Inhibitory Concentration (MIC) Method A The MIC test is a test on growth inhibition. Estimation of Minimum Inhibitory Concentration (MIC) is executed in 96 well plates. Through the comparison of bacterial growth curves with positive and negative controls via optical density (OD), different concentrations of given test substances are evaluated. Bacteria are cultivated under adjusted conditions based on information of the German Collection of Microorganisms and Cell Cultures (DSMZ) and stored in 50% Glycerol prior to use. Afterwards, the following method was applied: Adding growth medium (according to microorganism) to each well of the microplate. Adding the test-substances in different concentrations, positive controls (water controls only with medium) and negative controls (benchmarks according to organism). Adding the microorganism in a concentration of 10^6 CFU/ml (CFU=colony forming units). Incubation of the microplates at appropriate conditions. Aerobic microorganism: optical density is continuously measured (microplate reader) during incubation. Anaerobic microorganism: incubation in an anaerobic chamber, measurement of the optical density at the end of the incubation, comparison of the results with positive and negative controls. According to resulting growth curves, substance concentrations are labelled either as inhibiting or normal growth and MIC is defined as the lowest concentration where a clear inhibition is visible. Experiments at concentration limits (highest concentration labelled as growth and lowest concentration labelled as inhibiting) are performed at least twice.

For test [2], the system named is Aspergillus brasiliensis. Nature of the test: Minimum Inhibitory Concentration (MIC) Method A. As to the method: (§5) A) Minimum Inhibitory Concentration (MIC) Method A
(§6) The MIC test is a test on growth inhibition. Estimation of Minimum Inhibitory Concentration (MIC) is executed in 96 well plates. Through the comparison of bacterial growth curves with positive and negative controls via optical density (OD), different concentrations of given test substances are evaluated.
(§7) Bacteria are cultivated under adjusted conditions based on information of the German Collection of Microorganisms and Cell Cultures (DSMZ) and stored in 50% Glycerol prior to use. Afterwards, the following method was applied:
(§8) Adding growth medium (according to microorganism) to each well of the microplate.
(§9) Adding the test-substances in different concentrations, positive controls (water controls only with medium) and negative controls (benchmarks according to organism).
(§10) Adding the microorganism in a concentration of 10^6 CFU/ml (CFU=colony forming units). Incubation of the microplates at appropriate conditions.
(§11) Aerobic microorganism: optical density is continuously measured (microplate reader) during incubation.
(§12) According to resulting growth curves, substance concentrations are labelled either as inhibiting or normal growth and MIC is defined as the lowest concentration where a clear inhibition is visible. Experiments at concentration limits (highest concentration labelled as growth and lowest concentration labelled as inhibiting) are performed at least twice.

The test system of another test is Staphylococcus aureus. Kind of test: Minimum Inhibitory Concentration (MIC) Method A. As to the method: as §5, §6, §7, §8, §9, §10, §11, §12
For test [3], the system named is Staphylococcus epidermidis. Nature of the test: Minimum Inhibitory Concentration (MIC) Method A. As to the method:
as §5, §6, §7, §8, §9, §10, §11, §12

Test [4] relates to Corynebacterium xerosis. Kind of test: Minimum Inhibitory Concentration (MIC) Method B, DIN 58940; Synergy Index according to Kull. The settings on record: Method B (Examples 3, 5, 6), C. xerosis, single substance. As to the method: as §1, §2, §3, §4
Test [5] concerns Escherichia coli. Kind of test: Minimum Inhibitory Concentration (MIC) Method A. As to the method:
as §5, §6, §7, §8, §9, §10, §11, §12

The subject of test [6] is Aspergillus brasiliensis. Kind of test: Minimum Inhibitory Concentration (MIC) Method B, DIN 58940; Synergy Index according to Kull. Particulars: Method B (Example 5), A. brasiliensis, single substance. As to the method:
as §1
(§13) Test conditions: Evaluation of bactericidal and fungicidal activity in qualitative suspension test (VAH-standard methods, 04-2015). 5 ml of the appropriate dilution of the test product is mixed with 0.1 ml of test suspension and mixed well. After the required action times, the mixture was mixed again. Each 0.1 ml were removed and placed in 5 ml of CSL-bouillon without neutralizing agents.
as §3, §4
(§14) The synergistic activity of 3-hydroxypropyl caprylate and glyceryl caprylate on several bacterial and fungal reference strains for application in either Deodorant application or as preservative was determined by measuring minimum inhibitory concentrations (MIC values) according to DIN 58940 and method B (method section above).

Test [7] relates to Escherichia coli. The test is described as above. Particulars: Method B (Example 5), E. coli, single substance. As to the method: as §1, §13, §3, §4, §14
For another test, the system named is Staphylococcus hominis. Described as above. Particulars: Method B (Example 5), S. hominis, single substance. As to the method: as §1, §13, §3, §4, §14

≈ marks a conversion by molar mass, not a printed value. Where two headings read alike, the source gives them in different places.

Regarding `CCCCC(O)CO` (stereo not shown) [1,2 Hexanediol], in the test with Epidermophyton floccosum, the MIC came to 10000 µg/mL.

Consider `C=CCCCCCCCCC(=O)OCCCO` [3-hydroxypropyl undecylenate], for which the MIC with Corynebacterium xerosis [1] (read-out: MIC) was determined as 250 µg/mL (≈ 1030 µM); with Aspergillus brasiliensis [2] (read-out: MIC), 500 µg/mL (≈ 2060 µM); with Staphylococcus aureus (read-out: MIC) it was 500 µg/mL (≈ 2060 µM); in [3] (read-out: MIC), 64 µg/mL (≈ 264 µM).

For `CCCCCCC(O)CO` (stereo not shown) [Caprylyl Glycol, 1,2-Octanediol], the MIC with Epidermophyton floccosum was 5000 µg/mL; with Corynebacterium xerosis [4], 2500 µg/mL.

Regarding `CC(C)(O)CCc1ccccc1` [Dimethyl Phenylbutanol, reference compound], the MIC amounted to 2500 ppm in the test with Aspergillus brasiliensis [2], 2500 ppm in the test on Escherichia coli [5], 1000 ppm against Staphylococcus aureus and 1000 ppm in [3].

Consider `CC(C)=CCCC(C)=CCCC(C)=CCO` [Farnesol], for which, in the test on Corynebacterium xerosis [4], the MIC is 16 µg/mL.

Regarding `CCCC(O)CO` (stereo not shown) [Pentylene Glycol, 1,2-Pentanediol], the MIC in the test with Epidermophyton floccosum was determined as 15000 µg/mL.

For `CCCCCCCC(=O)OCC(O)CO` (stereo not shown) [glyceryl caprylate, reference compound], the MIC in the test on Corynebacterium xerosis [4] worked out at 1000 µg/mL; in the test on Aspergillus brasiliensis [6], 2500 µg/mL; in the test with Escherichia coli [7], 2500 µg/mL; in the test with Staphylococcus hominis, 1000 µg/mL.

For the compound `C=CCCCCCCCCC(=O)OCC(O)CO` (stereo not shown) [glyceryl monoundecylenate], the MIC entry was “low” against Corynebacterium xerosis [1] and 250 µg/mL (≈ 968 µM) with Corynebacterium xerosis [1] (read-out: MIC).
